Laboratory results as given in patent US20140155384A1, “COMPOUNDS AND METHODS OF TREATING DIABETES” (Medivation Technologies, Inc., priority 2011, published 2014).

What was measured:
[1] = molecular target: T1, human recombinant adrenergic α2B receptor (Homo sapiens, UniProt P18089); test: Radioligand binding, adrenergic α2B receptor ([3H]Rauwolscine); details: 0.1 μM compound, CHO-K1 cells, read-out: Percentage inhibition of ligand binding, Adrenergic α2B
T1 construct: expressed in transfected cells; host or cells: CHO-K1
T1 sequence (P18089 1-450): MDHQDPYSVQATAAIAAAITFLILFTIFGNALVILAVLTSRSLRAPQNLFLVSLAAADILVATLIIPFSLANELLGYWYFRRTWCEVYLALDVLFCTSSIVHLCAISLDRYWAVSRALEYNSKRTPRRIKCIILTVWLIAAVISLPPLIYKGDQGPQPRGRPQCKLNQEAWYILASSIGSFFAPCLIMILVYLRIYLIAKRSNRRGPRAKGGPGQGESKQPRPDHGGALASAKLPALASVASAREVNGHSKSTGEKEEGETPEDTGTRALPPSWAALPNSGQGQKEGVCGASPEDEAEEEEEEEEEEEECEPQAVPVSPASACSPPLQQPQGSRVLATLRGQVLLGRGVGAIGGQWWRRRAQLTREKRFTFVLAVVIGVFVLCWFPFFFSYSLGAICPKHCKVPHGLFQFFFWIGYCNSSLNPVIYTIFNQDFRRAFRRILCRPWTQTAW
Description: To evaluate in radioligand binding assays the activity of compounds, human recombinant adrenergic α2B receptor expressed in Chinese hamster ovary (CHO) K1 cells (Uhlen, S. et al, Eur. J. Pharmacol. 343(1):93, 1998) in a modified Tris-HCl buffer (50 mM Tris-HCl, pH 7.4, 12.5 mM MgCl2, 1 mM EDTA, 0.2% BSA) was used. Compounds were incubated with 2.5 nM [^3H]Rauwolscine for 60 min at 25° C. Non-specific binding was estimated in the presence of 10 μM Prazosin. Receptor proteins were filtered and washed, the filters were then counted to determine [^3H]Rauwolscine specifically bound. Compounds were screened at 1 μM or lower, using 1% DMSO as vehicle. Compounds were tested in this biochemical assay and percent inhibition of specific binding was determined. Biochemical assay results are presented as the percent inhibition of specific binding in Table 2.

[2] = molecular target: T2, human recombinant adrenergic α1D receptor (Homo sapiens, UniProt P25100); test: Radioligand binding, adrenergic α1D receptor ([3H]Prazosin); details: 0.1 μM compound; HEK-293 cells; 0.6 nM [3H]Prazosin; read-out: Percentage inhibition of ligand binding, Adrenergic α1D
T2 construct: expressed in transfected cells; host or cells: HEK-293
T2 sequence (P25100 1-572): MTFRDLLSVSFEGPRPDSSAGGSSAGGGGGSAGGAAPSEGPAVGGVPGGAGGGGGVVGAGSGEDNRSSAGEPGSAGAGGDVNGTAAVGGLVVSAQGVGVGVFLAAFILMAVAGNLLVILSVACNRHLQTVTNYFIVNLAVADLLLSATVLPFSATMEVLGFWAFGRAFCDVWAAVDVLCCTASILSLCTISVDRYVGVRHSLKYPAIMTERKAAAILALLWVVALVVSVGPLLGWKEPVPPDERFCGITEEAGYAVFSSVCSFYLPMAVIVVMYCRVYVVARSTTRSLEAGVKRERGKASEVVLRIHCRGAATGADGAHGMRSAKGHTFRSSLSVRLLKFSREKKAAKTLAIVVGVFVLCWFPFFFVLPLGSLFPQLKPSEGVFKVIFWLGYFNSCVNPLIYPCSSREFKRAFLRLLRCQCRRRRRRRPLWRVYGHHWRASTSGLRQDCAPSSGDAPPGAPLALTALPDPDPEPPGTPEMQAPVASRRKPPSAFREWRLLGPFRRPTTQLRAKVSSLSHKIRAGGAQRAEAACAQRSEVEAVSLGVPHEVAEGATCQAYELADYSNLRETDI
Description: Compounds were incubated with 0.6 nM [3H]Prazosin for 60 min at 25° C. Non-specific binding was estimated in the presence of 10 μM phentolamine. Receptor proteins were filtered and washed, the filters were then counted to determine [3H]Prazosin specifically bound. Compounds were screened at 1 μM or lower, using 1% DMSO as vehicle. Biochemical assay results are presented as the percent inhibition of specific binding in Table 2.

[3] = molecular target: T3, human recombinant adrenergic α2A receptor (Homo sapiens, UniProt P08913); test: Radioligand binding, adrenergic α2A receptor ([3H]MK-912); details: 0.1 μM compound; Sf9 cells; 1 nM [3H]MK-912; read-out: Percentage inhibition of ligand binding, Adrenergic α2A
T3 construct: expressed in transfected cells; host or cells: insect Sf9 cells
T3 sequence (P08913 1-465): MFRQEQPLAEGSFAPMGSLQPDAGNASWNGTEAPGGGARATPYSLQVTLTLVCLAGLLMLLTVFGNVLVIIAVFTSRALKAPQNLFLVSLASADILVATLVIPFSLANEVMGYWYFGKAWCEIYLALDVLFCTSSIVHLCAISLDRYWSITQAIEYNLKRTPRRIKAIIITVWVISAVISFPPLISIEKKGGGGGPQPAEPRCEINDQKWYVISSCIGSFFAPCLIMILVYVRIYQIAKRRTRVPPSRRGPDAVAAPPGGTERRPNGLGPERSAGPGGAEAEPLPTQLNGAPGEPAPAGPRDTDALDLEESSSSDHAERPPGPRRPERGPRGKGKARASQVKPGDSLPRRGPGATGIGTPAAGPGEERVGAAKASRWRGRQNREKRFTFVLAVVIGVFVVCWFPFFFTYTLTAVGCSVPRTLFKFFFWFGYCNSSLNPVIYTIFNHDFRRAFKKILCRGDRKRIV
Description: To evaluate in radioligand binding assays the activity of compounds, human recombinant adrenergic α2A receptor expressed in insect Sf9 cells (Uhlen, S. et al, J. Pharmacol. Exp. Ther. 271:1558, 1994) in a modified Tris-HCl buffer (50 mM Tris-HCl, pH 7.4, 12.5 mM MgCl2, 2 mM EDTA) was used. Compounds were incubated with 1 nM [^3H]MK-912 for 60 min at 25° C. MK912 is (2S-trans)-1,3,4,5′,6,6′,7,12b-octahydro-1′,3′-dimethyl-spiro[2H-benzofuro[2,3-a]quinolizine-2,4′(1′H)-pyrimidin]-2′(3′H)-one hydrochloride Non-specific binding was estimated in the presence of 10 μM WB-4101 (2-(2,6-Dimethoxyphenoxyethyl)aminoethyl-1,4-benzodioxane hydrochloride). Receptor proteins were filtered and washed, the filters were then counted to determine [^3H]MK-912 specifically bound. Compounds were screened at 1 μM or lower, using 1% DMSO as vehicle. Compounds were tested in this biochemical assay and percent inhibition of specific binding was determined. Biochemical assay results are presented as the percent inhibition of specific binding in Table 2.

[4] = molecular target: T4, rat adrenergic α1B receptor (Rattus norvegicus, UniProt P15823); test: Radioligand binding, adrenergic α1B receptor ([3H]Prazosin); details: 0.1 μM compound, Wistar rat liver, read-out: Percentage inhibition of ligand binding, Adrenergic α1B
T4 construct: rat adrenergic α1B receptor obtained from Wistar Rat liver; from tissue; host or cells: Wistar rat liver
T4 sequence (P15823 1-515): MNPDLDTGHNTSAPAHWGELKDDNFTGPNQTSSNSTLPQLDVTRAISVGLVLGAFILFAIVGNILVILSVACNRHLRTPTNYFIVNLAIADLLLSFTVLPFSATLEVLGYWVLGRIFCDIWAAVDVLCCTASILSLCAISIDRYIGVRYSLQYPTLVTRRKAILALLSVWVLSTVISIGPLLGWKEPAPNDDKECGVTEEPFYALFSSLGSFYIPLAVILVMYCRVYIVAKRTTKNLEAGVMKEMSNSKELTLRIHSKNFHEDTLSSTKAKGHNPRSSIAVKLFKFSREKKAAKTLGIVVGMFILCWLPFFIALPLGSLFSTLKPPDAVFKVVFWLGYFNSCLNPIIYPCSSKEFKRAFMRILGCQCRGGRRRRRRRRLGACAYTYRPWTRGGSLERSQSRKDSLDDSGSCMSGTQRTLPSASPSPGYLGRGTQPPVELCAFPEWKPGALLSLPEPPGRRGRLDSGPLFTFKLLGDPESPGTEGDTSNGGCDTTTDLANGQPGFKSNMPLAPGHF
Description: To evaluate in radioligand binding assays the activity of compounds, rat adrenergic α1B receptor obtained from Wistar Rat liver (Garcia-S' ainz, J. et al, Biochem. Biophys. Res. Commun. 186:760, 1992; Michel, A. et al, Br. J. Pharmacol. 98:883, 1989) in a modified Tris-HCl buffer (50 mM Tris-HCl buffer, pH 7.4, 0.5 mM EDTA) was used. Compounds were incubated with 0.25 nM [^3H]Prazosin for 60 min at […]. Non-specific binding was estimated in the presence of 10 μM phentolamine. Receptor proteins were filtered and washed, the filters were then counted to determine [^3H]Prazosin specifically bound. Compounds were screened at 1 μM or lower, using 1% DMSO as vehicle. Compounds were tested in this biochemical assay and percent inhibition of specific binding was determined. Biochemical assay results are presented as the percent inhibition of specific binding in Table 2.

| Structure (SMILES) | inhibition at 0.1 µM [1] | inhibition at 0.1 µM [2] | inhibition at 0.1 µM [3] | inhibition at 0.1 µM [4] |
| --- | --- | --- | --- | --- |
| Cc1ccc2c(c1)c1c(n2-c2cscc2-c2cncc3ccccc23)CCN(C)C1 [Compound 34] | 1% | 18% | 28% | 16% |
| Cc1ccc2c(c1)c1c(n2-c2cscc2-c2ccc(F)nc2)CCN(C)C1 [Compound 35] | 95% | 68% | 84% | 67% |
| Cc1csc(-c2ccccc2-n2c3c(c4cc(C)ccc42)CN(C)CC3)c1 [Compound 36] | 79% | 26% | 90% | 13% |
| Cc1ccc2c(c1)c1c(n2-c2ccc3cnccc3c2)CCN(C)C1 [Compound 38] | 57% | 32% | 32% | 31% |
| Cc1ccc2c(c1)c1c(n2-c2cscc2-c2sccc2C)CCN(C)C1 [Compound 39] | 70% | 62% | 98% | 67% |
| Cc1ccc2c(c1)c1c(n2-c2cscc2-c2cnc(N(C)C)nc2)CCN(C)C1 [Compound 40] | 89% | 79% | 91% | 43% |
| Cc1ccc2c(c1)c1c(n2-c2cscc2-c2cccc3[nH]ncc23)CCN(C)C1 [Compound 41] | 70% | 76% | 87% | 77% |
| Cc1ccc2c(c1)c1c(n2-c2cccc(-c3cnc(N(C)C)nc3)c2)CCN(C)C1 [Compound 42, 5-(3-(2,8-dimethyl-3,4-dihydro-1H-pyrido[4,3-b]indol-5(2H)-yl)phenyl)-N,N-dimethylpyrimidin-2-amine] | 7% | -3% | 17% | 10% |
| Cc1ccc2c(c1)c1c(n2-c2cccc(-c3sccc3C)c2)CCN(C)C1 [Compound 43, 2,8-dimethyl-5-(3-(3-methylthiophen-2-yl)phenyl)-2,3,4,5-tetrahydro-1H-pyrido[4,3-b]indole] | 6% | 3% | 31% | 9% |
| Cc1ccc2c(c1)c1c(n2-c2cccc(-c3ccc(F)nc3)c2)CCN(C)C1 [Compound 44, 5-(3-(6-fluoropyridin-3-yl)phenyl)-2,8-dimethyl-2,3,4,5-tetrahydro-1H-pyrido[4,3-b]indole] | 12% | 2% | 29% | 0% |
| CC(=O)Nc1ccc(-c2cccc(-n3c4c(c5cc(C)ccc53)CN(C)CC4)c2)cn1 [Compound 45, N-(5-(3-(2,8-dimethyl-3,4-dihydro-1H-pyrido[4,3-b]indol-5(2H)-yl)phenyl)pyridin-2-yl)acetamide] | 6% | 1% | 12% | 1% |
| Cc1ccc2c(c1)c1c(n2-c2cccc(-c3cnn(C)c3)c2)CCN(C)C1 [Compound 46, 2,8-dimethyl-5-(3-(1-methyl-1H-pyrazol-4-yl)phenyl)-2,3,4,5-tetrahydro-1H-pyrido[4,3-b]indole] | 21% | 8% | 48% | -7% |
| Cc1cc(C)c2c(c1)c1c(n2-c2cccc3ncccc23)CCN(C)C1 [Compound 47] | 6% | 3% | 62% | 5% |
| Cc1cc(C)c2c(c1)c1c(n2-c2ccc3ncccc3c2)CCN(C)C1 [Compound 48] | 16% | -5% | 19% | 1% |
| Cc1ccc2c(c1)c1c(n2-c2cscc2-c2ccc(O)nc2)CCN(C)C1 [Compound 49] | 31% | 14% | -3% | 12% |
